In ChEMBL document CHEMBL5356956, “Optimizing and characterizing 4-methyl substituted pyrazol-3-carboxamides leading to the peripheral cannabinoid 1 receptor inverse agonist TM38837” (Bioorg Med Chem Lett, 2024):
≈ marks a conversion by molar mass, not a printed value. Values belong to the compound of their own block, whether it stands above or below them. Calls of active or inactive are those of the source. No cut-off for these calls is given here.

How the values were obtained:
[1] = Drug concentration in DIO mouse adipose tissue at 10 mg/kg, po measured for 6 hrs relative to plasma concentration; format: ADME, organism-based; details: other tissue
[2] = Drug concentration in DIO mouse brain at 10 mg/kg, po measured for 6 hrs relative to plasma concentration; format: ADME, organism-based
[3] = Drug concentration in DIO mouse brain at 10 mg/kg, po measured for 6 hrs; format: ADME, organism-based; details: read-out: Drug uptake
[4] = Drug concentration in DIO mouse brain at 10 mg/kg, po measured for 24 hrs; format: ADME, organism-based; details: for Drug uptake: in vivo, po, 10 mg/kg, 24 h, BLD = below limit of detection
[5] = Drug concentration in DIO mouse adipose tissue at 10 mg/kg, po measured for 6 hrs; format: ADME, organism-based; details: read-out: Drug uptake
[6] = Drug concentration in DIO mouse liver at 10 mg/kg, po measured for 6 hrs; format: ADME, organism-based; details: read-out: Drug uptake
[7] = Lipophilicity, logD of compound by chromatographic analysis; format: physicochemical
Cannabinoid receptor 1 [8] = target: T1, Cannabinoid receptor 1 (Homo sapiens, UniProt P21554); test: Antagonist activity at human CB1 receptor expressed in CHO-K1 cell membrane in presence of CP55940 by GTP-gamma-S assay; format: functional, cell membranes
T1 sequence (P21554 whole entry): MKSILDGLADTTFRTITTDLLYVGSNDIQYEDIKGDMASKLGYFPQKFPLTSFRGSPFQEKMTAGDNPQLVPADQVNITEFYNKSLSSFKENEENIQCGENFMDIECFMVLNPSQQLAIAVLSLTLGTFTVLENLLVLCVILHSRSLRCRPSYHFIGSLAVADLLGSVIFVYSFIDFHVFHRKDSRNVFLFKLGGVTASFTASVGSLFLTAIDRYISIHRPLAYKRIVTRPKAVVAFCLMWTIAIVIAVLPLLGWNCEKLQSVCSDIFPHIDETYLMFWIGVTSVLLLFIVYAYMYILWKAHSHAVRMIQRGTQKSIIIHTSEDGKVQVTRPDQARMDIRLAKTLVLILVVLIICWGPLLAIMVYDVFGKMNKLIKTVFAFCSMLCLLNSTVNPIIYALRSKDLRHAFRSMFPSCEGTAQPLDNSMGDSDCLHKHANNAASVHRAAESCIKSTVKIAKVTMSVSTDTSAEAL

Cannabinoid receptor 1 [9] = target: T1, Cannabinoid receptor 1; test: Inverse agonist activity at human CB1 receptor expressed in CHO-K1 cell membrane by GTP-gamma-S assay; format: functional, cell membranes
Cannabinoid receptor 1 [10] = target: T1, Cannabinoid receptor 1; test: Inverse agonist activity at human CB1 receptor expressed in African green monkey COS7 cells co-expressing G-protein in presence of CP55940 by IP3 assay; format: functional, cell membranes, Membrane
Cannabinoid receptor 2 = Cannabinoid receptor 2 (Homo sapiens, UniProt P34972); test: Inverse agonist activity at human CB2 receptor expressed in CHO-K1 cell membrane in presence of CP55940 by GTP-gamma-S assay; format: functional, cell membranes
Chain of Cannabinoid receptor 2 (P34972 whole entry): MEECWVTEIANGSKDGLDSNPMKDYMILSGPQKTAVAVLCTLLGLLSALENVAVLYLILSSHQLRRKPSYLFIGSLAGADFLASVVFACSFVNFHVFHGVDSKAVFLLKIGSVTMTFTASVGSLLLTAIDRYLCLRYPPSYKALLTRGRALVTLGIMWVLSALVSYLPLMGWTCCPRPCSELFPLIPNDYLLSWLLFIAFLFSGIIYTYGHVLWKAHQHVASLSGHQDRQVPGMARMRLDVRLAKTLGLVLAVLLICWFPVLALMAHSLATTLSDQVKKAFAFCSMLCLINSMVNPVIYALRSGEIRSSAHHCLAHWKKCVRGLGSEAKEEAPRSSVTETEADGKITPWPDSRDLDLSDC

[11] = Subchronic toxicity in DIO mouse assessed as reduction in body weight at 10 mg/kg, po measured after 7 days; format: organism-based; design: scale not given: the % may be the effect or the level left; details: in vivo, 168 h, time 7 day
[12] = Drug concentration in DIO mouse plasma at 10 mg/kg, po measured for 6 hrs; format: ADME, organism-based
[13] = Half life in NMRI mouse at 2 mg/kg, iv; format: ADME, organism-based; details: in vivo
[14] = Clearance in NMRI mouse at 2 mg/kg, iv; format: ADME, organism-based; details: in vivo
[15] = Volume of distribution at steady state in NMRI mouse at 2 mg/kg, iv; format: ADME, organism-based; details: in vivo, read-out: Vdss
[16] = Cmax in NMRI mouse at 10 mg/kg, po; format: ADME, organism-based; design: dose 10 mg/kg, route po; details: in vivo
[17] = Tmax in NMRI mouse at 10 mg/kg, po; format: ADME, organism-based; details: in vivo
[18] = Half life in NMRI mouse at 10 mg/kg, po; format: ADME, organism-based; details: in vivo
[19] = Oral bioavailability in NMRI mouse at 10 mg/kg; format: ADME, organism-based; details: in vivo
[20] = Protein binding in NMRI mouse plasma; format: ADME, cell-free; details: read-out: PPB
[21] = Efflux ratio of permeability in human Caco-2 cells; format: ADME, cell-based
[22] = Drug concentration in NMRI mouse brain relative to plasma concentration; format: ADME, tissue-based
CYP2C9 = CYP2C9 (Homo sapiens, UniProt P11712); test: Inhibition of CYP2C9 (unknown origin) at 10 uM relative to control; format: ADME
Chain of CYP2C9 (P11712 whole entry): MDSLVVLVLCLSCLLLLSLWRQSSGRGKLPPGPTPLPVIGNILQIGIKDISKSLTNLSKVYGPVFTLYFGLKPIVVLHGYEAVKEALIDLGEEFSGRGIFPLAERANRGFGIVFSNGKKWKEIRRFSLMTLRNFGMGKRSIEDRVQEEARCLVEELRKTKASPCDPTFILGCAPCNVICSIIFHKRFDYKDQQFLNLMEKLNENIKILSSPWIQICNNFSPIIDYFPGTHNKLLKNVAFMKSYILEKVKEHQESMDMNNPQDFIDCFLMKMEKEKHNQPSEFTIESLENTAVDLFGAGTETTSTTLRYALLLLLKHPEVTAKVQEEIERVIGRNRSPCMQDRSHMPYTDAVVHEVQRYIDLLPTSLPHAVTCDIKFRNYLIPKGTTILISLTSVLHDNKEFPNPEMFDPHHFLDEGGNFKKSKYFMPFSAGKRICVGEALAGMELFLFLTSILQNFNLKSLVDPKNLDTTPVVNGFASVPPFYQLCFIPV

[23] = Solubility of compound; format: physicochemical
[24] = Clearance in rat hepatocytes assessed per million cells; format: ADME, cell-based, Hepatocyte
[25] = Drug uptake in brain of lean C57BL/6J mouse by autoradiography; format: ADME, tissue-based; details: in vivo
[26] = Drug concentration in DIO mouse adipose tissue assessed as fold increase at 10 mg/kg, po measured for 6 hrs relative to plasma concentration; format: ADME, organism-based; details: read-out: FC
[27] = In vivo inverse agonist activity at CB1 receptor in DIO mouse assessed as efficacy at 10 mg/kg, po measured after 6 hrs; format: functional
[28] = target: T2, Glucose-dependent insulinotropic receptor (Homo sapiens) (UniProt Q8TDV5); test: Inhibition of GPR119 (unknown origin) at 1 uM relative to control
T2 sequence (whole entry): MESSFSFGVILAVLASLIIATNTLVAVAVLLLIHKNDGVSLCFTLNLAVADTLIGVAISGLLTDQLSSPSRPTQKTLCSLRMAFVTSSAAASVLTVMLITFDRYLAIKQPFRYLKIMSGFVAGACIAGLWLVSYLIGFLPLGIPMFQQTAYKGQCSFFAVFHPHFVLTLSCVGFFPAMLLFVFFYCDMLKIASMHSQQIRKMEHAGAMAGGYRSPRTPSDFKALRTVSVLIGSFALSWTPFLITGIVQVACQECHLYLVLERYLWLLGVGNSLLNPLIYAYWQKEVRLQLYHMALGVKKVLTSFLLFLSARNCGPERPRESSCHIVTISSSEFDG

[29] = target: G-protein coupled receptor 55 (Homo sapiens) (UniProt Q9Y2T6); test: Inhibition of GPR55 (unknown origin) at 1 uM relative to control
Chain of G-protein coupled receptor 55 (Homo sapiens) (Q9Y2T6 whole entry): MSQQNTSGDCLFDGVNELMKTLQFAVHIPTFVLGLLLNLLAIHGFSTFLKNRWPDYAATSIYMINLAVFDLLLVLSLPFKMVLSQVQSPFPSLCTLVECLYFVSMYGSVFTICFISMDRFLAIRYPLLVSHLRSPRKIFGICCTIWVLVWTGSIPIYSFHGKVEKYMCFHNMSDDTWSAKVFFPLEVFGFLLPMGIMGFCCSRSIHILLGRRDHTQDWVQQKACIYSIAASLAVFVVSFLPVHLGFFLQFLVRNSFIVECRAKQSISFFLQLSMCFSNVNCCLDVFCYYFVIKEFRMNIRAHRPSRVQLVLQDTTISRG

Liver = test: In vivo inhibition of CB1 receptor in liver of lean C57BL/6J mouse by autoradiography; format: functional, organism-based
[30] = AUC (infinity) in NMRI mouse at 2 mg/kg, iv; format: ADME, organism-based; design: dose 2 mg/kg, route iv; details: in vivo
[31] = AUC (infinity) in NMRI mouse at 10 mg/kg, po; format: ADME, organism-based; design: dose 10 mg/kg, route po; details: in vivo
[32] = Cmax in NMRI mouse at 30 mg/kg, po; format: ADME, organism-based; design: dose 30 mg/kg, route po; details: in vivo
[33] = Tmax in NMRI mouse at 30 mg/kg, po; format: ADME, organism-based; details: in vivo
[34] = Half life in NMRI mouse at 30 mg/kg, po; format: ADME, organism-based; details: in vivo
[35] = AUC (infinity) in NMRI mouse at 30 mg/kg, po; format: ADME, organism-based; design: dose 30 mg/kg, route po; details: in vivo
[36] = Oral bioavailability in NMRI mouse at 30 mg/kg; format: ADME, organism-based; details: in vivo

Drug uptake [1]: 4% | Drug uptake [2]: 0.8% | concentration at 6 h [3]: 0.07 µM | Drug uptake [4]: Bld | concentration at 6 h [5]: 0.35 µM | concentration at 6 h [6]: 9.5 µM | chromatographic logD [7]: 2.7 | IC50 (Cannabinoid receptor 1 [8]): 18 nM | IC50 (Cannabinoid receptor 1 [9]): 300 nM | IC50 (Cannabinoid receptor 1 [10]): 18 nM | IC50 (Cannabinoid receptor 2): > 10000 nM | concentration at 6 h [12]: 9 µM
Compound: O=C(O)Cc1c(C(=O)N2CCC(c3ccc(F)cc3)CC2)nn(-c2ccccc2Cl)c1-c1ccc(Cl)cc1
Activity [11]: 0.2%

Drug uptake [1]: 4% | Drug uptake [2]: 0.6% | concentration at 6 h [3]: 0.22 µM | Drug uptake [4]: Bld | concentration at 6 h [5]: 1.5 µM | concentration at 6 h [6]: 10 µM | chromatographic logD [7]: 2.6 | IC50 (Cannabinoid receptor 1 [8]): 4.8 nM | IC50 (Cannabinoid receptor 1 [9]): 51 nM | IC50 (Cannabinoid receptor 1 [10]): 2.9 nM | IC50 (Cannabinoid receptor 2): > 10000 nM | half-life [13]: 3.1 h | clearance [14]: 2.1 mL/min/kg | Vd [15]: 0.6 L/kg | Cmax [16]: 47 µM | Tmax [17]: 0.5 h | half-life [18]: 2.2 h | bioavailability [19]: 88% | fraction unbound [20]: < 0.01 | efflux ratio [21]: 1.3 | Drug uptake [22]: ~ 1% | concentration at 6 h [12]: 38 µM
Compound: O=C(O)Cc1c(C(=O)N2CCC(c3ccccc3F)CC2)nn(-c2ccccc2Cl)c1-c1ccc(Cl)cc1
Activity [11]: 6.4%

inhibition at 10 µM (CYP2C9): 48% | chromatographic logD [7]: 3 | IC50 (Cannabinoid receptor 1 [9]): 64 nM | IC50 (Cannabinoid receptor 1 [10]): 26 nM | solubility [23]: 115 µM (≈ 75.7 µg/mL) | CLH [24]: 14 µL/min/1e6 cells
Compound: O=C(c1nn(-c2ccccc2Cl)c(-c2ccc(Cl)cc2)c1Cc1nn[nH]n1)N1CCC(Oc2ccc(OC(F)(F)F)cc2)CC1

inhibition at 10 µM (CYP2C9): 38% | chromatographic logD [7]: 2.6 | IC50 (Cannabinoid receptor 1 [9]): 47 nM | IC50 (Cannabinoid receptor 1 [10]): 30 nM | solubility [23]: 204 µM (≈ 124 µg/mL) | CLH [24]: 77 µL/min/1e6 cells
Compound: O=C(c1nn(-c2ccccc2Cl)c(-c2ccc(Cl)cc2)c1Cc1nn[nH]n1)N1CCC(Oc2ccc(Cl)cc2)CC1

chromatographic logD [7]: 2.1 | IC50 (Cannabinoid receptor 1 [9]): 86 nM | IC50 (Cannabinoid receptor 1 [10]): 64 nM
Compound: C[C@@H](NC(=O)c1nn(-c2ccccc2Cl)c(-c2ccc(Cl)cc2)c1Cc1nnn[nH]1)c1cccc(F)c1
Activity [11]: 5.2%

inhibition at 10 µM (CYP2C9): 0% | chromatographic logD [7]: 2.5 | IC50 (Cannabinoid receptor 1 [9]): 80 nM | IC50 (Cannabinoid receptor 1 [10]): 35 nM | solubility [23]: 421 µM (≈ 257 µg/mL) | CLH [24]: 45 µL/min/1e6 cells
Compound: O=C(c1nn(-c2ccccc2Cl)c(-c2ccc(Cl)cc2)c1Cc1nn[nH]n1)N1CCC(Oc2ccc(F)c(F)c2)CC1
Activity [11]: < 2%

Compound: C[C@@H](NC(=O)c1nn(-c2ccccc2Cl)c(-c2ccc(Cl)cc2)c1Cc1nn[nH]n1)c1ccc(C(F)(F)F)cc1
inhibition at 10 µM (CYP2C9): 39% | Drug uptake [25]: Active | Drug uptake [2]: 1.3% | concentration at 6 h [3]: 0.08 µM | concentration at 24 h ([4]; brain, read-out: Drug uptake): 0.02 µM | concentration at 6 h [5]: 1.2 µM | concentration at 6 h [6]: 47 µM | Kp at 6 h [26]: 5 | Efficacy [27]: 11% | inhibition [28]: < 30% | inhibition [29]: < 30% | inhibition (Liver): Active | chromatographic logD [7]: 2.8 | IC50 (Cannabinoid receptor 1 [8]): 6.7 nM | IC50 (Cannabinoid receptor 1 [9]): 24 nM | IC50 (Cannabinoid receptor 1 [10]): 3.3 nM | IC50 (Cannabinoid receptor 2): 4500 nM | solubility [23]: 250 µM (≈ 147 µg/mL) | CLH [24]: 16 µL/min/1e6 cells | half-life [13]: 2.5 h | clearance [14]: 2.6 mL/min/kg | Vd [15]: 0.4 L/kg | Cmax [16]: 13 µM | Tmax [17]: 2 h | half-life [18]: 3.1 h | bioavailability [19]: 95% | AUC(0-inf) [30]: 22 µM·h | AUC(0-inf) [31]: 104 µM·h | Cmax [32]: 41 µM | Tmax [33]: 2 h | half-life [34]: 4 h | AUC(0-inf) [35]: 297 µM·h | bioavailability [36]: 91% | fraction unbound [20]: < 0.01 | efflux ratio [21]: 1 | Drug uptake [22]: ~ 1% | Activity [11]: 11.4% | concentration at 6 h [12]: 6.5 µM

inhibition at 10 µM (CYP2C9): 35% | chromatographic logD [7]: 2.7 | IC50 (Cannabinoid receptor 1 [9]): 95 nM | IC50 (Cannabinoid receptor 1 [10]): 24 nM | solubility [23]: 201 µM (≈ 122 µg/mL) | CLH [24]: 15 µL/min/1e6 cells
Compound: O=C(c1nn(-c2ccccc2Cl)c(-c2ccc(Cl)cc2)c1Cc1nn[nH]n1)N1CCC(Oc2cccc(Cl)c2)CC1
